Measurements: ChEMBL document CHEMBL1641386, “Lagunamides A and B: cytotoxic and antimalarial cyclodepsipeptides from the marine cyanobacterium Lyngbya majuscula” (J Nat Prod, 2010)

Key:
[1] = test system: Pseudomonas aeruginosa; experiment: Anti-Swarming activity against Pseudomonas aeruginosa PA01 at 100 ppm after 72 hrs; type: functional
[2] = test system: Plasmodium falciparum; experiment: Antimalarial activity against drug-sensitive Plasmodium falciparum NF54 infected in human erythrocytes after 48 hrs by Liquid scintillation counter; type: functional, organism-based; conditions: NF54, 48 h
[3] = test system: P388; experiment: Cytotoxicity against mouse P388 cells after 72 hrs by MTT assay; type: functional, cell-based; conditions: P388, 72 h

SMILES | Activity [1] [%] | IC50 [2] [nM] | IC50 [3] [nM]
C/C=C(\C)[C@@H]1OC(=O)[C@H](C)N(C)C(=O)[C@H]([C@H](C)CC)NC(=O)CN(C)C(=O)[C@@H](Cc2ccccc2)N(C)C(=O)[C@H](C)NC(=O)[C@@H]([C@@H](C)CC)OC(=O)/C(C)=C/C[C@H](O)[C@@H]1C [LAGUNAMIDE B] | 56 | 910 | 20.5
CC[C@@H](C)[C@@H]1NC(=O)CN(C)C(=O)[C@@H](Cc2ccccc2)N(C)C(=O)[C@H](C)NC(=O)[C@@H]([C@@H](C)CC)OC(=O)/C(C)=C/C[C@H](O)[C@H](C)[C@H]([C@@H](C)CC)OC(=O)[C@H](C)N(C)C1=O [LAGUNAMIDE A] | 62 | 190 | 6.4
